The test system of the test is HRE-bla ME-180 cells. Put plainly: Reporter gene assay (HRE-bla ME-180 HIF reporter, GeneBLAzer). Format: cell-based, human. The following applies: for EC50: 24 hour normoxia. Here is the method: The following reagents were used:
• DMEM+GutaMAX: (#10569044, Invitrogen) • Black clear bottom plates: (#3603, Costar) • HRE-bla-ME-180 cell line: (#K1644, Invitrogen) • Gene-Blazer reagent & protocol: (#K1096, Invitrogen) • Plate reader: Biotek Synergy 2 • Chetomin: (C9623, Sigma)
4 hours prior to experiment: HRE-bla ME-180 cells were seeded at a density of 20,000 cells/well in a volume of 180 μl in black clear bottom 96-well plates. 180 μl of assay medium was added to the cell-free control wells. Incubation was conducted at 37° C., 5% CO2 for 4 hours.
Diluted chetomin was used as a positive control. Chetomin was diluted in 100% DMSO to a 10 mM stock concentration. A 1 mM stock of chetomin was prepared in 100% DMSO. Then the 1 mM chetomin stock was serially diluted in 1:4 in 100% DMSO. Finally, 50, 12.5, 3.125, 0.78, 0.2, 0.05 μM stock of chetomin in 5% DMSO/water were prepared by adding 114 μL water+6 μL chetomin in DMSO.
Test peptides were diluted before use. The test peptides were diluted in 100% DMSO to a 10 mM stock concentration. Then each 10 mM peptide stock was diluted in 1:3 in 100% DMSO. Finally, 300, 100, 33.3, 11.1, 3.7, 1.2 μM stock of each peptide in 5% DMSO/water were prepared by adding 129.2 μL water+4 μL peptide in DMSO.
20 μl of peptide, chetomin dilution, or DMSO/water control were added to the appropriate wells of a plate to achieve 200 μL final volumes in 0.3% DMSO/media. The plate was first incubated for 18-20 hours in normoxia incubator (37° C. in humidified 5% CO2, 20% O2 atmosphere). Then the plate was transferred to hypoxia incubator for 24 hours (37° C. in humidified 5% CO2, 1% O2 atmosphere)
6× LiveBLAzer™-FRET B/G (CCF4-AM) Substrate Mixture was prepared according to CellSensor™ HRE-bla ME-180 Cell-based Assay Protocol (Invitrogen) and added into each well. Solution A (CCF4-AM) was reconstituted in DMSO to a working concentration of 1 mM, divided in aliquots, and stored at −20° C. The 6× LiveBLAzer-FRET B/G (CCF4-AM) Substrate mixture was prepared by mixing 6 μl of Solution A, 60 μl of Solution B, and 934 μl Solution C.
The plates were removed from incubator and equilibrated to RT for a few minutes. Then 20 μl of 6× Substrate mixture was added to each well. The plates were then incubated at room temperature for 3 hr in the dark and read at 409 Ex/460Em and 409Ex/530Em using the “GeneBlazer-Tungsten with export” program on the Synergy 2.
The average percentage of maximum inhibition was obtained by comparing the peptide treated cells (30 μM) to DMSO vehicle control treated cells. The results are shown in the columns “ME-180 HIF Reporter EC50 (μM) −24 hr normoxia” and “18 h Avg % max inhibition at top conc (HIF Rptr-24 hrsnormoxia) (μM)” of Table 6.
Background: Reporter assays use an easily measured gene product as a stand-in for the process of interest.

Bridge positions count the residues as written; N and C are the ends. Square brackets hold non-standard residues; d marks the D form. Peptide text beside a SMILES is read from it. S5 = C=CCCC[C@](C)(N)C(=O)O; Nle = CCCC[C@H](N)C(=O)O

With `CCCC[C@H](NC(=O)[C@H](CC(C)C)NC(=O)[C@@H](NC(=O)[C@H](CCC(=O)O)NC(=O)[C@H](CCC(=O)O)NC(=O)[C@H](CC(=O)O)NC(=O)[C@@H](NC(=O)[C@H](Cc1ccccc1)NC(C)=O)[C@@H](C)CC)C(C)C)C(=O)N[C@@]1(C)CCCC=CCCC[C@@](C)(C(=O)N[C@@H](CCCC)C(=O)N[C@@H](C)C(=O)N[C@@H](CC(C)C)C(=O)N[C@@H](CC(=O)O)C(=O)N[C@@H](CCCNC(=N)N)C(=O)N[C@H](C(N)=O)[C@@H](C)CC)NC(=O)[C@H]([C@@H](C)CC)NC(=O)[C@H](C)NC(=O)[C@H](CC(C)C)NC1=O` [SP-18] (Ac-FIDEEVL[Nle][S5]LAI[S5][Nle]ALDRI-NH2; staple 9-13), the “18 h Avg % max inhibition at top conc (HIF Rptr-24 hrs normoxia) (μM)” value (“18 h Avg % max inhibition at top conc” below) was “++++ (≥50: ++++)” and the EC50 was 5 to 15 µM.

For `CCCC[C@H](NC(=O)[C@H](CC(C)C)NC(=O)[C@@H](NC(=O)[C@H](CCC(=O)O)NC(=O)[C@H](CCC(=O)O)NC(=O)[C@H](CC(=O)O)NC(=O)[C@@H](NC(=O)[C@H](Cc1ccccc1)NC(C)=O)[C@@H](C)CC)C(C)C)C(=O)N[C@@]1(C)CCCC=CCCC[C@@](C)(C(=O)N[C@@H](CCCC)C(=O)N[C@@H](C)C(=O)N[C@@H](CC(C)C)C(=O)N[C@@H](CC(=O)O)C(=O)N[C@@H](CCCNC(=N)N)C(=O)N[C@H](C(N)=O)[C@@H](C)CC)NC(=O)[C@H](C)NC(=O)[C@H](C(C)C)NC(=O)[C@H](CC(C)C)NC1=O` [SP-19] (Ac-FIDEEVL[Nle][S5]LVA[S5][Nle]ALDRI-NH2; staple 9-13), the “18 h Avg % max inhibition at top conc” value is “+++ (≤25 but <50: +++)” and the EC50 lay within 5 to 15 µM.

For `CCCC[C@H](NC(=O)[C@H](CC(C)C)NC(=O)[C@@H](NC(=O)[C@H](CCC(=O)O)NC(=O)[C@H](CCC(=O)O)NC(=O)[C@H](CC(=O)O)NC(=O)[C@@H](NC(=O)[C@H](Cc1ccccc1)NC(C)=O)[C@@H](C)CC)C(C)C)C(=O)N[C@@]1(C)CCCC=CCCC[C@@](C)(C(=O)N[C@@H](C)C(=O)N[C@@H](C)C(=O)N[C@@H](CC(C)C)C(=O)N[C@@H](CC(=O)O)C(=O)N[C@@H](CCCNC(=N)N)C(=O)N[C@H](C(N)=O)[C@@H](C)CC)NC(=O)[C@H]([C@@H](C)CC)NC(=O)[C@H](C(C)C)NC(=O)[C@H](CC(C)C)NC1=O` [SP-20] (Ac-FIDEEVL[Nle][S5]LVI[S5]AALDRI-NH2; staple 9-13), the “18 h Avg % max inhibition at top conc” value is listed as “++++ (≥50: ++++)” and the EC50 is 5 to 15 µM.

Take `CCCC[C@H](NC(=O)[C@H](CC(C)C)NC(=O)[C@@H](NC(=O)[C@H](CCC(=O)O)NC(=O)[C@H](CCC(=O)O)NC(=O)[C@H](CC(=O)O)NC(=O)[C@@H](NC(=O)[C@H](Cc1ccccc1)NC(C)=O)[C@@H](C)CC)C(C)C)C(=O)N[C@@]1(C)CCCC=CCCC[C@@](C)(C(=O)N[C@@H](CCCC)C(=O)NCC(=O)N[C@@H](CC(C)C)C(=O)N[C@@H](CC(=O)O)C(=O)N[C@@H](CCCNC(=N)N)C(=O)N[C@H](C(N)=O)[C@@H](C)CC)NC(=O)[C@H]([C@@H](C)CC)NC(=O)[C@H](C(C)C)NC(=O)[C@H](CC(C)C)NC1=O` [SP-21] (Ac-FIDEEVL[Nle][S5]LVI[S5][Nle]GLDRI-NH2; staple 9-13): the “18 h Avg % max inhibition at top conc” value is given as “++++ (≥50: ++++)” and the EC50 fell in the range of 5 to 15 µM.

Take `CCCC[C@H](NC(=O)[C@H](CC(C)C)NC(=O)[C@@H](NC(=O)[C@H](CCC(=O)O)NC(=O)[C@H](CCC(=O)O)NC(=O)[C@H](CC(=O)O)NC(=O)[C@@H](NC(=O)[C@H](Cc1ccccc1)NC(C)=O)[C@@H](C)CC)C(C)C)C(=O)N[C@@]1(C)CCCC=CCCC[C@@](C)(C(=O)N[C@@H](CCCC)C(=O)N[C@@H](C)C(=O)N[C@@H](C)C(=O)N[C@@H](CC(=O)O)C(=O)N[C@@H](CCCNC(=N)N)C(=O)N[C@H](C(N)=O)[C@@H](C)CC)NC(=O)[C@H]([C@@H](C)CC)NC(=O)[C@H](C(C)C)NC(=O)[C@H](CC(C)C)NC1=O` [SP-22] (Ac-FIDEEVL[Nle][S5]LVI[S5][Nle]AADRI-NH2; staple 9-13): the “18 h Avg % max inhibition at top conc” value was “++++ (≥50: ++++)” and the EC50 lay in the range of 5 to 15 µM.

As for `CCCC[C@H](NC(=O)[C@H](CC(C)C)NC(=O)[C@@H](NC(=O)[C@H](CCC(=O)O)NC(=O)[C@H](CCC(=O)O)NC(=O)[C@H](CC(=O)O)NC(=O)[C@@H](NC(=O)[C@H](Cc1ccccc1)NC(C)=O)[C@@H](C)CC)C(C)C)C(=O)N[C@@]1(C)CCCC=CCCC[C@@](C)(C(=O)N[C@@H](CCCC)C(=O)N[C@@H](C)C(=O)N[C@@H](CC(C)C)C(=O)N[C@@H](C)C(=O)N[C@@H](CCCNC(=N)N)C(=O)N[C@H](C(N)=O)[C@@H](C)CC)NC(=O)[C@H]([C@@H](C)CC)NC(=O)[C@H](C(C)C)NC(=O)[C@H](CC(C)C)NC1=O` [SP-23] (Ac-FIDEEVL[Nle][S5]LVI[S5][Nle]ALARI-NH2; staple 9-13), the “18 h Avg % max inhibition at top conc” value is recorded as “++++ (≥50: ++++)” and the EC50 was 5 to 15 µM.

For the compound `CCCC[C@H](NC(=O)[C@H](CC(C)C)NC(=O)[C@@H](NC(=O)[C@H](CCC(=O)O)NC(=O)[C@H](CCC(=O)O)NC(=O)[C@H](CC(=O)O)NC(=O)[C@@H](NC(=O)[C@H](Cc1ccccc1)NC(C)=O)[C@@H](C)CC)C(C)C)C(=O)N[C@@]1(C)CCCC=CCCC[C@@](C)(C(=O)N[C@@H](CCCC)C(=O)N[C@@H](C)C(=O)N[C@@H](CC(C)C)C(=O)N[C@@H](CC(=O)O)C(=O)N[C@@H](C)C(=O)N[C@H](C(N)=O)[C@@H](C)CC)NC(=O)[C@H]([C@@H](C)CC)NC(=O)[C@H](C(C)C)NC(=O)[C@H](CC(C)C)NC1=O` [SP-24] (Ac-FIDEEVL[Nle][S5]LVI[S5][Nle]ALDAI-NH2; staple 9-13), the “18 h Avg % max inhibition at top conc” value is listed as “++++ (≥50: ++++)” and the EC50 is 5 to 15 µM.

Take `CCCC[C@H](NC(=O)[C@H](CC(C)C)NC(=O)[C@@H](NC(=O)[C@H](CCC(=O)O)NC(=O)[C@H](CCC(=O)O)NC(=O)[C@H](CC(=O)O)NC(=O)[C@@H](NC(=O)[C@H](Cc1ccccc1)NC(C)=O)[C@@H](C)CC)C(C)C)C(=O)N[C@@]1(C)CCCC=CCCC[C@@](C)(C(=O)N[C@@H](CCCC)C(=O)N[C@@H](C)C(=O)N[C@@H](CC(C)C)C(=O)N[C@@H](CC(=O)O)C(=O)N[C@@H](CCCNC(=N)N)C(=O)N[C@@H](C)C(N)=O)NC(=O)[C@H]([C@@H](C)CC)NC(=O)[C@H](C(C)C)NC(=O)[C@H](CC(C)C)NC1=O` [SP-25] (Ac-FIDEEVL[Nle][S5]LVI[S5][Nle]ALDRA-NH2; staple 9-13): the “18 h Avg % max inhibition at top conc” value is “+++ (≤25 but <50: +++)” and the EC50 was 5 to 15 µM.

With `CC[C@H](C)[C@H](NC(=O)[C@H](CCCNC(=N)N)NC(=O)[C@H](CC(=O)O)NC(=O)[C@H](CC(C)C)NC(=O)[C@H](C)NC(=O)[C@H](C)NC(=O)[C@]1(C)CCCC=CCCC[C@](C)(NC(=O)[C@H](C)NC(=O)[C@H](CC(C)C)NC(=O)[C@@H](NC(=O)[C@H](CCC(=O)O)NC(=O)[C@H](CCC(=O)O)NC(=O)[C@H](CC(=O)O)NC(=O)[C@@H](NC(=O)[C@H](Cc2ccccc2)NC(C)=O)[C@@H](C)CC)C(C)C)C(=O)N[C@@H](CC(C)C)C(=O)N[C@@H](C(C)C)C(=O)N[C@@H]([C@@H](C)CC)C(=O)N1)C(N)=O` [SP-26] (Ac-FIDEEVLA[S5]LVI[S5]AALDRI-NH2; staple 9-13), the “18 h Avg % max inhibition at top conc” value was “++++ (≥50: ++++)” and the EC50 was 5 to 15 µM.

On to `CCCC[C@H](NC(=O)[C@H](CC(C)C)NC(=O)[C@@H](NC(=O)[C@H](CCC(=O)O)NC(=O)[C@H](CCC(=O)O)NC(=O)[C@H](CC(=O)O)NC(=O)[C@@H](NC(=O)[C@H](Cc1ccccc1)NC(C)=O)[C@@H](C)CC)C(C)C)C(=O)N[C@@]1(C)CCCC=CCCC[C@@](C)(C(=O)N[C@@H](CCCC)C(=O)N[C@@H](C)C(=O)N[C@@H](CC(C)C)C(=O)N[C@@H](CC(=O)O)C(=O)N[C@@H](CCCNC(=N)N)C(N)=O)NC(=O)[C@H]([C@@H](C)CC)NC(=O)[C@H](C(C)C)NC(=O)[C@H](CC(C)C)NC1=O` [SP-27] (Ac-FIDEEVL[Nle][S5]LVI[S5][Nle]ALDR-NH2; staple 9-13), for which the “18 h Avg % max inhibition at top conc” value is given as “++++ (≥50: ++++)” and the EC50 was 5 to 15 µM.

By EC50 is commonly meant the concentration that produces a half-maximal response.

The record behind these values is patent US20190225650A1, “PEPTIDOMIMETIC MACROCYCLES AND USE THEREOF IN REGULATING HIF1ALPHA” (AILERON THERAPEUTICS, INC., priority 2013, published 2019).
